Consider 40 molecules from patent US20040087623A1, “Pyrazole derivatives against tgf overexpression” (priority 2001, published 2004).

Counter-ions that a name gives are not always drawn.

One experiment concerns TGF-β signaling (PAI-1 promoter-luciferase in HepG2 cells). As to the kind of experiment: Assay 1: inhibition of TGF-β induced PAI-1 promoter luciferase reporter in HepG2 cells. The conditions noted are these: 500 μM CPO with TGF-β; % of those obtained in column 11 (TGF-β only). On the technique in general: A reporter such as luciferase makes a cellular process visible.
Method: The assay was performed in HepG2 cells stably transfected with the PAI-1 promoter (known to be a strong TGF-β responsive promoter) linked to a luciferase (firefly) reporter gene. The compounds were selected on their ability to inhibit luciferase activity in cells exposed to TGF-β. In addition cells were transfected with a second luciferase (Renilla) gene which was not driven by a TGF-β responsive promoter and was used as a toxicity control.
(96 well-)microplates are seeded, using a multidrop apparatus, with the stably transfected cell line at a concentration of 35000 cells per well in 200 μl of serum-containing medium. These plates are placed in a cell incubator.
18 to 24 hours later (Day 2), cell-incubation procedure is launched. Cells are incubated with TGF-β and a candidate compound at concentrations in the range 50 nM to 10 μM (final concentration of DMSO 1%). The final concentration of TGF-β (rhTGFβ-1) used in the test is 1 ng/mL. […] The final volume of the test reaction is 150 μl. Each well contains only one candidate compound and its effect on the PAI-1 promoter is monitored.
Columns 11 and 12 are employed as controls. Column 11 contains 8 wells in which the cells are incubated in the presence of TGF-β, without a candidate compound. Column 11 is used to determine the ‘reference TGF-β induced firefly luciferase value’ against which values measured in the test wells (to quantify inhibitory activity) may be compared. In wells A12 to D12, cells are grown in medium without TGF-β. The firefly luciferase values obtained from these positions are representative of the ‘basal firefly luciferase activity’. In wells E12 to H12, cells are incubated in the presence of TGF-β and 500 μM CPO (Cyclopentenone, Sigma), a cell toxic compound.
12 to 18 hours later (day 3), the luciferase quantification procedure is launched. The following reactions are performed using reagents obtained from a Dual Luciferase Assay Kit (Promega). Cells are washed and lysed with the addition of 10 μl of passive lysis buffer (Promega). Following agitation (15 to 30 mins), luciferase activities of the plates are read in a dual-injector luminometer (BMG lumistar). For this purpose, 50 μl of luciferase assay reagent and 50 μl of ‘Stop & Glo’ buffer are injected sequentially to quantify the activities of both luciferases. The mean Luciferase activity value obtained in wells A11 to H11 (Column 11, TGF-β only) is considered to represent 100% and values obtained in wells A12 to D12 (cells in medium alone) give a basal level (0%). For each of the compounds tested, a concentration response curve is constructed from which an IC50 value can be determined graphically.
On to `O=C1C=CCC1` [CPO, Cyclopentenone, reference compound], for which the “firefly and renilla luciferase activities (toxicity control)” value is recorded as “around 50%”.

Still in this experiment, the particulars now being: Homo sapiens, HepG2, read-out: IC50 value in Assay 1.
As for `c1ccc(-c2cc(-c3c[nH]nc3-c3ccccn3)ccn2)cc1` [Example 1, 2-Phenyl-4-(3-pyridin-2-yl-1H-pyrazol-4-yl)pyridine], the IC50 (usually the concentration needed to halve the response being measured) is not above 5 µM.

Take `CN(Cc1ccc(-c2cc(-c3c[nH]nc3-c3ccccn3)ccn2)cc1)c1cccnc1` [Example 20, Pyridin-3-yl-methyl-{4-[4-(3-pyridin-2-yl-1H-pyrazol-4-yl)pyridin-2-yl]benzyl}-amine]: the IC50 was not above 5 µM.

In the case of `COc1ccc(-c2cc(-c3c[nH]nc3-c3ccccn3)ccn2)cc1` [Example 3, 2-(4-Methoxyphenyl)-4-(3-pyridin-2-yl-1H-pyrazol-4-yl)pyridine], the IC50 was not above 5 µM.

Turning to `Cc1ccc(-c2cc(-c3c[nH]nc3-c3ccccn3)ccn2)cc1` [Example 8, 2-(4-Methylphenyl)-4-(3-pyridin-2-yl-1H-pyrazol-4-yl)pyridine], the IC50 is not above 5 µM.

`O=C(c1ccc(-c2cc(-c3c[nH]nc3-c3ccccn3)ccn2)cc1)N1CCOCC1` [Example 39, 4-{4-[4-(3-Pyridin-2-yl-1H-pyrazol-4-yl)-pyridin-2-yl]-benzoyl}-morpholine]: the 50% inhibitory concentration (IC50) is not above 5 µM.

For the molecule `Clc1ccc(-c2cc(-c3c[nH]nc3-c3ccccn3)ccn2)cc1` [Example 5, 2-(4-Chlorophenyl)-4-(3-pyridin-2-yl-1H-pyrazol4-yl)pyridine], the IC50 is not above 5 µM.

Turning to `CN(C)C1CCN(C(=O)c2ccc(-c3cc(-c4c[nH]nc4-c4ccccn4)ccn3)cc2)CC1` [Example 40, (4-Dimethylamino)-1-{4-[4-(3-pyridin-2-yl-1H-pyrazol-4-yl)-pyridin-2-yl]-benzoyl}-piperidine], the IC50 is not above 5 µM.

For `O=C(NCC1CCCCC1)c1ccc(-c2cc(-c3c[nH]nc3-c3ccccn3)ccn2)cc1` [Example 47, N-Cyclohexylmethyl-4-[4-(3-pyridin-2-yl-1H-pyrazol-4-yl)-pyridin-2-yl]-benzamide], the half-inhibitory concentration (IC50) was not above 5 µM.

Turning to `Cn1ccnc1COc1ccc(-c2cc(-c3c[nH]nc3-c3ccccn3)ccn2)cc1` [Example 15, 2-[4-(1-Methyl-1H-imidazol-2-ylmethoxy)-phenyl]-4-(3-pyridin-2-yl-1H-pyrazol-4-yl)pyridine], the IC50 is not above 5 µM.

Turning to `c1ccc(-c2n[nH]cc2-c2ccnc(-c3ccc(OCCn4ccnc4)cc3)c2)nc1` [Example 17, 2-[4-(2-{1H-Imidazol-1-yl}-ethoxy)-phenyl]-4-(3-pyridin-2-yl-1H-pyrazol-4-yl)-pyridine], the IC50 is not above 5 µM.

For `O=C(NC1CCOCC1)c1ccc(-c2cc(-c3c[nH]nc3-c3ccccn3)ccn2)cc1` [Example 28, 4-[4-(3-Pyridin-2-yl-1H-pyrazol-4-yl)-pyridin-2-yl]-N-(tetrahydro-pyran-4-yl)-benzamide], the IC50 was not above 5 µM.

Turning to `CN1CCN(CC(=O)Nc2ccc(-c3cc(-c4c[nH]nc4-c4ccccn4)ccn3)cc2)CC1` [Example 24, 2-(4-Methyl-piperazin-1-yl)-N-{4-[4-(3-pyridin-2-yl-1H-pyrazol-4-yl)-pyridin-2-yl]-phenyl}-acetamide], the IC50 is not above 5 µM.

For the molecule `CN(C)Cc1ccc(-c2cc(-c3c[nH]nc3-c3ccccn3)ccn2)cc1` [Example 43, Dimethyl-{4-[4-(3-pyridin-2-yl-1H-pyrazol-4-yl)pyridin-2-yl]-benzyl}-amine], the IC50 is not above 5 µM.

Take `CCc1ccc(-c2cc(-c3c[nH]nc3-c3ccccn3)ccn2)cc1` [Example 9, 2-(4-Ethylphenyl)-4-(3-pyridin-2-yl-1H-pyrazol-4-yl)pyridine]: the IC50 is not above 5 µM.

Consider `FC(F)(F)c1ccc(-c2cc(-c3c[nH]nc3-c3ccccn3)ccn2)cc1` [Example 2, 2-[4(Trifluoromethyl)Phenyl]-4-(3-pyridin-2-yl-1H-pyrazol-4-yl) Pyridine], for which the IC50 is not above 5 µM.

For `c1ccc(-c2n[nH]cc2-c2ccnc(-c3ccc(CN4CCOCC4)cc3)c2)nc1` [Example 19, {4-[4-(3-Pyridin-2-yl-1H-pyrazol-4-yl)pyridin-2-yl]benzyl}-morpholine hydrochloride], the IC50 is not above 5 µM.

With `O=C(CN1CCCCC1)Nc1ccc(-c2cc(-c3c[nH]nc3-c3ccccn3)ccn2)cc1` [Example 21, 2-Piperidin-1-yl-N-{4-[4-(3-pyridin-2-yl-1H-pyrazol-4-yl)-pyridin-2-yl]-phenyl}-acetamide], the IC50 is not above 5 µM.

In the case of `Cn1cncc1COc1ccc(-c2cc(-c3c[nH]nc3-c3ccccn3)ccn2)cc1` [Example 16, 2-[4-(3-Methyl-3H-imidazol-4-ylmethoxy)-phenyl]-4-(3-pyridin-2-yl-1-H-pyrazol-4)-pyridine], the IC50 was not above 5 µM.

As for `O=C(CCN1CCCCC1)Nc1ccc(-c2cc(-c3c[nH]nc3-c3ccccn3)ccn2)cc1` [Example 25, 3-Piperidin-1-yl-N{4-[4-(3-pyridin-2-yl-1H-pyrazol-4-yl)-pyridin-2-yl]-phenyl}-propionamide hydrochloride], the IC50 is not above 5 µM.

On to `N#CCCNCc1ccc(-c2cc(-c3c[nH]nc3-c3ccccn3)ccn2)cc1` [Example 12, 3-({4-[4-(3-Pyridin-2-yl-1H-pyrazol-4-yl)pyridin-2-yl]benzyl}amino)propanenitrile], for which the IC50 was not above 5 µM.

As to `c1ccc(-c2n[nH]cc2-c2ccnc(-c3ccc(CNC4CCOCC4)cc3)c2)nc1` [Example 18], the half-inhibitory concentration (IC50) was not above 5 µM.

With `Cn1cnc(COc2ccc(-c3cc(-c4c[nH]nc4-c4ccccn4)ccn3)cc2)c1` [Example 14, 2-[4-(1-Methyl-1-H-imidazol-4-ylmethoxy)-phenyl]-4-(3-pyridin-2-yl-1H-pyrazol-4-yl)-pyridine], the IC50 was not above 5 µM.

With `CN1CCN(C(=O)c2ccc(-c3cc(-c4c[nH]nc4-c4ccccn4)ccn3)cc2)CC1` [Example 38, 1-Methyl-4-{4-[4-(3-pyridin-2-yl-1H-pyrazol-4-yl)-pyridin-2-yl]-benzoyl}-piperazine], the IC50 was not above 5 µM.

On to `O=C(CN1CCOCC1)Nc1ccc(-c2cc(-c3c[nH]nc3-c3ccccn3)ccn2)cc1` [Example 23, 2-Morpholin-1-yl-N-{4-[4-(3-pyridin-2-yl-1H-pyrazol-4-yl)-pyridin-2-yl]phenyl}-acetamide], for which the IC50 is not above 5 µM.

On to `O=C(CN1CCCC1)Nc1ccc(-c2cc(-c3c[nH]nc3-c3ccccn3)ccn2)cc1` [Example 22, 2-Pyrrolidin-1-yl-N-{4-[4-(3-pyridin-2-yl-1H-pyrazol-4-yl)-pyridin-2-yl]-phenyl}-acetamide], for which the IC50 was not above 5 µM.

In the case of `c1ccc(-c2n[nH]cc2-c2ccnc(-c3ccc(OCCN4CCCC4)cc3)c2)nc1` [Example 11, 2-[4-(2-Pyrrolidin-1-ylethoxy)-phenyl]-4-(3-pyridin-2-yl-1H-pyrazol-4-yl)pyridine], the concentration for half-maximal inhibition (IC50) is not above 5 µM.

Turning to `Fc1ccc(-c2cc(-c3c[nH]nc3-c3ccccn3)ccn2)cc1` [Example 4, 2-(4-Fluorophenyl)-4-(3-pyridin-2-yl-1H-pyrazol-4-yl)pyridine], the IC50 is not above 5 µM.

For `CN1CCC(NCc2ccc(-c3cc(-c4c[nH]nc4-c4ccccn4)ccn3)cc2)CC1` [Example 37, (1-Methyl-piperidin-4-yl)-{4-[4-(3-pyridin-2-yl-1H-pyrazol-4-yl)pyridin-2-yl]benzyl}-amine], the IC50 is not above 5 µM.

On to `CN1CCN(CCC(=O)Nc2ccc(-c3cc(-c4c[nH]nc4-c4ccccn4)ccn3)cc2)CC1` [Example 27, 3-(4-Methyl-piperazin-1-yl)-N{4-[4-(3-pyridin-2-yl-1H-pyrazol-4-yl)-pyridin-2yl]-phenyl}-propionamide], for which the IC50 is not above 5 µM.

On to `c1ccc(-c2n[nH]cc2-c2ccnc(-c3ccsc3)c2)nc1` [Example 10, 2-(Thiophen-3-yl)-4-(3-pyridin-2-yl-1H-pyrazol-4-yl)pyridine], for which the IC50 was not above 5 µM.

In the case of `COCCNC(=O)c1ccc(-c2cc(-c3c[nH]nc3-c3ccccn3)ccn2)cc1` [Example 46, N-(2-Methoxy-ethyl)-4-[4-(3-pyridin-2-yl-1H-pyrazol-4-yl)-pyridin-2-yl]-benzamide], the IC50 was not above 5 µM.

As for `COCCN(C)C(=O)c1ccc(-c2cc(-c3c[nH]nc3-c3ccccn3)ccn2)cc1` [Example 45, N-(2-Methoxy-ethyl)-N-methyl-4-[4-(3-pyridin-2-yl-1H-pyrazol-4-yl)-pyridin-2-yl]-benzamide], the IC50 was not above 5 µM.

On to `O=C(NCC1CCOCC1)c1ccc(-c2cc(-c3c[nH]nc3-c3ccccn3)ccn2)cc1` [Example 44, 4-[4-(3-Pyridin-2-yl-1H-pyrazol-4-yl)-pyridin-2-yl]-N-(tetrahydropyran-4-yl-methyl)-benzamide], for which the IC50 was not above 5 µM.

With `c1ccc(-c2n[nH]cc2-c2ccnc(-c3ccco3)c2)nc1` [Example 6, 2-(Furan-2-yl)-4-(3-pyridin-2-yl-1H-pyrazol-4-yl)pyridine], the IC50 is not above 5 µM.

In the case of `COC1CCN(Cc2ccc(-c3cc(-c4c[nH]nc4-c4ccccn4)ccn3)cc2)CC1` [Example 34, 4-Methoxy-1-{4-[4-(3-pyridin-2-yl-1H-pyrazol-4-yl)pyridin-2-yl]benzyl}-piperidine], the IC50 was not above 5 µM.

Regarding `CCN1CCCC1CNC(=O)c1ccc(-c2cc(-c3c[nH]nc3-c3ccccn3)ccn2)cc1` (stereo not shown) [Example 29, N-(1-Ethyl-pyrolidin-2-ylmethyl)-4-[4-(3-pyridin-2-yl-1H-pyrazol-4-yl)-pyridin-2-yl]-benzamide], the half-inhibitory concentration (IC50) is not above 5 µM.

Turning to `FC(F)(F)Oc1ccc(-c2cc(-c3c[nH]nc3-c3ccccn3)ccn2)cc1` [Example 7, 2-(4-Trifluoromethoxyphenyl)-4-(3-pyridin-2-yl-1H-pyrazol-4-yl)pyridine], the IC50 was not above 5 µM.

In the case of `O=C(CCN1CCOCC1)Nc1ccc(-c2cc(-c3c[nH]nc3-c3ccccn3)ccn2)cc1` [Example 26], the half-inhibitory concentration (IC50) is not above 5 µM.

Take `c1ccc(-c2n[nH]cc2-c2ccnc(-c3ccc(N4CCOCC4)cc3)c2)nc1` [Example 13, 4-{4-[4-(3-Pyridin-2-yl-1H-pyrazol-4-yl)-pyridin-2-yl]-phenyl}-morpholine]: the concentration for half-maximal inhibition (IC50) is not above 5 µM.
